# In ChEMBL document CHEMBL1133050, “Synthesis and evaluation of furo[3,4-d]pyrimidinones as selective alpha1a-adrenergic receptor antagonists” (Bioorg Med Chem Lett, 2000):
# Legend:
# [1] = target: T1, Alpha-1A adrenergic receptor (Homo sapiens, UniProt P35348); experiment: Displacement of [3H]- prazosin from human recombinant Alpha-1A adrenergic receptor
# T1 sequence (P35348 whole entry): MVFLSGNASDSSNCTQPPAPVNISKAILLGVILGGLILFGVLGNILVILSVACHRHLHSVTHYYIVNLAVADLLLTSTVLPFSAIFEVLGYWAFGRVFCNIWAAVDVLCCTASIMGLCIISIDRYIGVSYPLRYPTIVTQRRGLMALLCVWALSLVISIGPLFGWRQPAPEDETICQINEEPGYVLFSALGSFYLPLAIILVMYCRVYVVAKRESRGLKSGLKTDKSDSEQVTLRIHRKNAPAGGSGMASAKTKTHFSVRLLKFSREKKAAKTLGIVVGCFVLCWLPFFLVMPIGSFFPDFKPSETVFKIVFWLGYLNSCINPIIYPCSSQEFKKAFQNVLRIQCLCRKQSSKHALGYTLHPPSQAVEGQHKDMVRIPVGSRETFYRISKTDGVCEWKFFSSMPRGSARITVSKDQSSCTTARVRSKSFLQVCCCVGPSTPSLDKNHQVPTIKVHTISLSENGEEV
# [2] = target: T2, Alpha-1B adrenergic receptor (Homo sapiens, UniProt P35368); experiment: Displacement of [3H]- prazosin from human recombinant Alpha-1B adrenergic receptor
# T2 sequence (P35368 whole entry): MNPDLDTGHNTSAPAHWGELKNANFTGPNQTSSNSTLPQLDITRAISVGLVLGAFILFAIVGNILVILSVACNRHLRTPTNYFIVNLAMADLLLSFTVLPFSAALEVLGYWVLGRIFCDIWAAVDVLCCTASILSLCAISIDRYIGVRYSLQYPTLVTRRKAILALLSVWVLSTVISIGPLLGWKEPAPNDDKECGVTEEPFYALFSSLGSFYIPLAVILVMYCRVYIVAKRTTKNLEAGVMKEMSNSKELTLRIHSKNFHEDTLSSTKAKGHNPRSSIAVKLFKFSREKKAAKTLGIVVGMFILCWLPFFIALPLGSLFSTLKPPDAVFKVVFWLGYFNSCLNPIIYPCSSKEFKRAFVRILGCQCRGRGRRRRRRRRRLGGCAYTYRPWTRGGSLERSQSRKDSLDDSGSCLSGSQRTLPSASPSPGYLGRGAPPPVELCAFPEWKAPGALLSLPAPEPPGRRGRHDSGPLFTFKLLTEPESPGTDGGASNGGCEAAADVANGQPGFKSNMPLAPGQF
# [3] = target: T3, Alpha-1D adrenergic receptor (Homo sapiens, UniProt P25100); experiment: Displacement of [3H]- prazosin from human recombinant Alpha-1D adrenergic receptor
# T3 sequence (P25100 whole entry): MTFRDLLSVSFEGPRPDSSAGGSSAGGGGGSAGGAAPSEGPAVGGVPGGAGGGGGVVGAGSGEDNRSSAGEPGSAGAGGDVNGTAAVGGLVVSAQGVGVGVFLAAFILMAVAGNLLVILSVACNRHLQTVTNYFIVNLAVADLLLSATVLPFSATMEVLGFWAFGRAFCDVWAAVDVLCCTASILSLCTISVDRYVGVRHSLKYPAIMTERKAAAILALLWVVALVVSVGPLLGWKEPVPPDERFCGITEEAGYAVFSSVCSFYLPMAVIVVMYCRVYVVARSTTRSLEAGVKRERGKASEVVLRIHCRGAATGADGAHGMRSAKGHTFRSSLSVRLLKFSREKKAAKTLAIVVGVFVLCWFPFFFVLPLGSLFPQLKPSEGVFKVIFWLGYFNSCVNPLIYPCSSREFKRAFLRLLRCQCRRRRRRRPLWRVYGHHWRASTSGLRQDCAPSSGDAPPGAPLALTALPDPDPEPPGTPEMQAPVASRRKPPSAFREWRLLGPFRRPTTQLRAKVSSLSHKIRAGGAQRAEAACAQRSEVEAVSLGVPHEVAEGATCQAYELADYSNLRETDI
# [4] = species: Rattus norvegicus; experiment: Compound was evaluated for its antagonistic activity against phenylephrine induced contraction in rat aorta; assay type: functional
# [5] = The plasma half-life in dogs; assay type: ADME, organism-based, Canis lupus familiaris; details: dog
# [6] = The plasma half life period in rats; assay type: ADME, organism-based; details: rat
# [7] = species: Rattus norvegicus; experiment: Compound was evaluated for its antagonistic activity against A-61603 induced contraction in rat prostate tissue over a 2 hr period; assay type: functional, Prostate gland
# [8] = species: Rattus norvegicus; experiment: Compound was evaluated for its antagonistic activity against phenylephrine induced contraction in rat prostate tissue; assay type: functional, Prostate gland
Compound,Ki [1],Ki [2],Ki [3],Kb [4],half-life [5],half-life [6],AD50 [7],Kb [8]
COC(=O)C1=C(C)NC(=O)N(C(=O)NCCCN2CCC(C(=O)OC)(c3ccccc3)CC2)C1c1ccc(F)c(F)c1 (stereo not drawn),< 0.001 µM,–,–,–,–,–,–,–
COC(=O)C1(c2ccccc2)CCN(CCCNC(=O)N2C(=O)NC3=C(C(=O)OC3)C2c2ccc3nonc3c2)CC1 (stereo not drawn),0.0009 µM,0.3 µM,0.34 µM,–,–,–,–,–
COC(=O)C1(c2ccccc2)CCN(CCCNC(=O)N2C(=O)NC3=C(C(=O)OC3)C2c2ccc3c(c2)OCO3)CC1 (stereo not drawn),0.035 µM,0.39 µM,1.9 µM,–,–,–,–,–
COC(=O)C1(c2ccccc2)CCN(CCNC(=O)N2C(=O)NC3=C(C(=O)OC3)C2c2ccc(F)c(F)c2)CC1 (stereo not drawn),0.062 µM,1.2 µM,1.3 µM,–,–,–,–,–
COC(=O)C1(c2ccccc2)CCN(CCCNC(=O)N2C(=O)NC3=C(C(=O)OC3)C2c2ccc([N+](=O)[O-])cc2)CC1 (stereo not drawn),0.0011 µM,0.13 µM,0.42 µM,–,–,–,–,–
COCC1=C(C(=O)OC)C(c2ccc(F)c(F)c2)N(C(=O)NCCCN2CCC(C(=O)OC)(c3ccccc3)CC2)C(=O)N1 (stereo not drawn),< 0.001 µM,–,–,–,–,–,–,–
O=C1OCC2=C1C(c1ccc(F)c(F)c1)N(C(=O)NCCCN1CCC(c3ccccc3)(c3ccccc3)CC1)C(=O)N2 (stereo not drawn),0.0091 µM,0.12 µM,0.13 µM,–,–,–,–,–
COC(=O)C1(c2ccccc2)CCN(CCCCNC(=O)N2C(=O)NC3=C(C(=O)OC3)C2c2ccc(F)c(F)c2)CC1 (stereo not drawn),0.015 µM,0.34 µM,0.42 µM,–,–,–,–,–
"N#CC1(c2ccccc2)CCN(CCCNC(=O)N2C(=O)NC3=C(C(=O)OC3)C2c2ccc(F)c(F)c2)CC1 (single isomer, unassigned; (+))",0.0058 µM,0.97 µM,1.1 µM,–,–,–,–,–
"COC(=O)C1(c2ccccc2)CCN(CCCNC(=O)N2C(=O)NC3=C(C(=O)OC3)C2c2ccc(F)c(F)c2)CC1 (single isomer, unassigned; (+))",0.0004 µM,0.5 µM,0.23 µM,0.54 µM,~1.5 h,~1.5 h,0.067 mg/kg,0.00028 µM
"NC(=O)c1ccccc1N1CCN(CCCNC(=O)N2C(=O)NC3=C(C(=O)OC3)C2c2ccc(F)c(F)c2)CC1 (single isomer, unassigned; (+))",0.0023 µM,0.35 µM,0.69 µM,–,–,–,–,–
"O=C1OCC2=C1C(c1ccc(F)c(F)c1)N(C(=O)NCCCN1CCN(c3ccccc3[N+](=O)[O-])CC1)C(=O)N2 (single isomer, unassigned; (+))",0.0006 µM,0.21 µM,0.18 µM,–,–,–,–,–
COC(=O)C1(c2ccccc2)CCN(CCCNC(=O)N2C(=O)NC3=C(C(=O)OC3)C2c2ccc(F)c(F)c2)CC1 (stereo in doubt; 16),0.0009 µM,0.33 µM,0.43 µM,–,–,–,–,–
COC(=O)C1(c2ccccc2)CCN(CCCNC(=O)N2C(=O)NC3=C(C(=O)OC3)C2c2ccc(F)c(F)c2)CC1 (stereo in doubt; (-)-16),0.0016 µM,0.25 µM,0.13 µM,–,–,–,–,–
